Test results reported in US10624917B2, “Compositions and methods useful for treating or preventing liver diseases or disorders, and promoting weight loss” (YALE UNIVERSITY, priority 2014, dated 2020).

Tested on: wild type and Casp-1−/− mice injected with TAA
Assay: TAA induced liver fibrosis with co-injection of adenosine agonist
Format: in vivo, mouse
Conditions: wildtype mice
Method: FIGS. 16A-16B illustrate increased liver fibrosis in wild-type control but not caspase-1-deficient mice in response to adenosine agonist. FIG. 16A: Wild type and Casp-1−/− mice were injected intraperitoneally with TAA with co-injection of CGS21680 (2.5 mg kg^−1 body weight) or vehicle. The liver tissues from each group were collected […] after first injection, and tissue collagen visualized by Sirius red staining, and the representative images are shown. Scale bar corresponds to 500 μm. FIG. 16B: Total liver RNA was extracted and Timp1 mRNA levels quantified. Data are expressed as the mean±SD from three independent experiments. * p<0.05 determined by Student's t-test.
To further test the effect of increased adenosine signaling on fibrosis wild-type and caspase-1 deficient mice were injected with TAA with and without co-injection of the adenosine agonist CGS21680. After one week, liver tissues were stained for collagen with Sirus Red. CGS21680 increased TAA induced liver fibrosis and Timp1 expression in wildtype but not caspase-1 deficient mice (FIGS. 16A-16B).

Compound: CCNC(=O)[C@H]1O[C@@H](n2cnc3c(N)nc(NCCc4ccc(CCC(=O)O)cc4)nc32)[C@H](O)[C@@H]1O [CGS21680]
- TAA induced liver fibrosis: increased
- Timp1 expression: increased
